± gives the expanded uncertainty stated by the source.
Test: xn = mol fraction of the nth substance listed
Settings: 100 kPa, Liquid; for mass density: Vibrating tube method; for viscosity: Falling or rolling sphere viscometry

CCCCCCCCCCC [undecane] + CCCCCO
Settings | mass density [kg/m3] | viscosity [mPa·s]
323.15 K, x1 = 0.0999 | 778.15 ± 1.6 | –
323.15 K, x1 = 0.2 | 766.37 ± 1.6 | –
323.15 K, x1 = 0.3026 | 756.27 ± 1.5 | –
323.15 K, x1 = 0.4001 | 748.09 ± 1.5 | –
323.15 K, x1 = 0.5022 | 740.84 ± 1.5 | –
323.15 K, x1 = 0.5976 | 734.98 ± 1.5 | –
323.15 K, x1 = 0.6984 | 729.62 ± 1.5 | –
323.15 K, x1 = 0.801 | 724.97 ± 1.5 | –
323.15 K, x1 = 0.8822 | 721.69 ± 1.5 | –
323.15 K, x1 = 1 | 718.11 ± 1.4 | –
328.15 K, x1 = 0.0999 | 774.23 ± 1.6 | 1.336 ± 0.018
328.15 K, x1 = 0.2 | 762.42 ± 1.5 | 1.142 ± 0.015
328.15 K, x1 = 0.3026 | 752.3 ± 1.5 | 0.989 ± 0.013
328.15 K, x1 = 0.4001 | 744.13 ± 1.5 | 0.895 ± 0.012
328.15 K, x1 = 0.5022 | 736.88 ± 1.5 | 0.828 ± 0.011
328.15 K, x1 = 0.5976 | 731.04 ± 1.5 | 0.776 ± 0.01
328.15 K, x1 = 0.6984 | 725.7 ± 1.5 | 0.742 ± 0.01
328.15 K, x1 = 0.801 | 721.07 ± 1.5 | 0.714 ± 0.01
328.15 K, x1 = 0.8822 | 717.84 ± 1.4 | 0.702 ± 0.009
328.15 K, x1 = 1 | 714.39 ± 1.4 | 0.692 ± 0.009
333.15 K, x1 = 0.0999 | 770.26 ± 1.6 | 1.2 ± 0.016
333.15 K, x1 = 0.2 | 758.42 ± 1.5 | 1.035 ± 0.014
333.15 K, x1 = 0.3026 | 748.29 ± 1.5 | 0.903 ± 0.012
333.15 K, x1 = 0.4001 | 740.12 ± 1.5 | 0.825 ± 0.011
333.15 K, x1 = 0.5022 | 732.89 ± 1.5 | 0.767 ± 0.01
333.15 K, x1 = 0.5976 | 727.07 ± 1.5 | 0.723 ± 0.01
333.15 K, x1 = 0.6984 | 721.76 ± 1.5 | 0.694 ± 0.009
333.15 K, x1 = 0.801 | 717.15 ± 1.4 | 0.67 ± 0.009
333.15 K, x1 = 0.8822 | 713.96 ± 1.4 | 0.659 ± 0.009
333.15 K, x1 = 1 | 710.68 ± 1.4 | 0.651 ± 0.009
338.15 K, x1 = 0.0999 | 766.24 ± 1.6 | 1.082 ± 0.015
338.15 K, x1 = 0.2 | 754.37 ± 1.5 | 0.94 ± 0.013
338.15 K, x1 = 0.3026 | 744.23 ± 1.5 | 0.827 ± 0.011
338.15 K, x1 = 0.4001 | 736.07 ± 1.5 | 0.763 ± 0.01
338.15 K, x1 = 0.5022 | 728.86 ± 1.5 | 0.714 ± 0.01
338.15 K, x1 = 0.5976 | 723.06 ± 1.5 | 0.675 ± 0.009
338.15 K, x1 = 0.6984 | 717.77 ± 1.4 | 0.652 ± 0.009
338.15 K, x1 = 0.801 | 713.2 ± 1.4 | 0.63 ± 0.008
338.15 K, x1 = 0.8822 | 710.06 ± 1.4 | 0.621 ± 0.008
338.15 K, x1 = 1 | 706.95 ± 1.4 | 0.615 ± 0.008
343.15 K, x1 = 0.0999 | 762.15 ± 1.5 | 0.979 ± 0.013
343.15 K, x1 = 0.2 | 750.25 ± 1.5 | 0.857 ± 0.012
343.15 K, x1 = 0.3026 | 740.12 ± 1.5 | 0.76 ± 0.01
343.15 K, x1 = 0.4001 | 731.98 ± 1.5 | 0.708 ± 0.009
343.15 K, x1 = 0.5022 | 724.77 ± 1.5 | 0.666 ± 0.009
343.15 K, x1 = 0.5976 | 719 ± 1.5 | 0.633 ± 0.008
343.15 K, x1 = 0.6984 | 713.75 ± 1.4 | 0.613 ± 0.008
343.15 K, x1 = 0.801 | 709.22 ± 1.4 | 0.594 ± 0.008
343.15 K, x1 = 0.8822 | 706.13 ± 1.4 | 0.587 ± 0.008
343.15 K, x1 = 1 | 703.22 ± 1.4 | 0.58 ± 0.008
348.15 K, x1 = 0.0999 | 758.01 ± 1.5 | 0.889 ± 0.012
348.15 K, x1 = 0.2 | 746.09 ± 1.5 | 0.784 ± 0.011
348.15 K, x1 = 0.3026 | 735.95 ± 1.5 | 0.701 ± 0.009
348.15 K, x1 = 0.4001 | 727.83 ± 1.5 | 0.659 ± 0.009
348.15 K, x1 = 0.5022 | 720.65 ± 1.5 | 0.624 ± 0.008
348.15 K, x1 = 0.5976 | 714.91 ± 1.4 | 0.595 ± 0.008
348.15 K, x1 = 0.6984 | 709.7 ± 1.4 | 0.578 ± 0.008
348.15 K, x1 = 0.801 | 705.21 ± 1.4 | 0.561 ± 0.008
348.15 K, x1 = 0.8822 | 702.19 ± 1.4 | 0.556 ± 0.007
348.15 K, x1 = 1 | 699.47 ± 1.4 | 0.549 ± 0.007
353.15 K, x1 = 0.0999 | 753.8 ± 1.5 | 0.81 ± 0.011
353.15 K, x1 = 0.2 | 741.87 ± 1.5 | 0.72 ± 0.01
353.15 K, x1 = 0.3026 | 731.74 ± 1.5 | 0.649 ± 0.009
353.15 K, x1 = 0.4001 | 723.64 ± 1.5 | 0.615 ± 0.008
353.15 K, x1 = 0.5022 | 716.49 ± 1.4 | 0.585 ± 0.008
353.15 K, x1 = 0.5976 | 710.78 ± 1.4 | 0.56 ± 0.007
353.15 K, x1 = 0.6984 | 705.61 ± 1.4 | 0.545 ± 0.007
353.15 K, x1 = 0.801 | 701.17 ± 1.4 | 0.531 ± 0.007
353.15 K, x1 = 0.8822 | 698.22 ± 1.4 | 0.528 ± 0.007
353.15 K, x1 = 1 | 695.72 ± 1.4 | 0.522 ± 0.007
358.15 K, x1 = 0.0999 | 749.51 ± 1.5 | 0.744 ± 0.01
358.15 K, x1 = 0.2 | 737.58 ± 1.5 | 0.663 ± 0.009
358.15 K, x1 = 0.3026 | 727.46 ± 1.5 | 0.602 ± 0.008
358.15 K, x1 = 0.4001 | 719.38 ± 1.5 | 0.577 ± 0.008
358.15 K, x1 = 0.5022 | 712.26 ± 1.4 | 0.551 ± 0.007
358.15 K, x1 = 0.5976 | 706.59 ± 1.4 | 0.528 ± 0.007
358.15 K, x1 = 0.6984 | 701.47 ± 1.4 | 0.517 ± 0.007
358.15 K, x1 = 0.801 | 697.1 ± 1.4 | 0.504 ± 0.007
358.15 K, x1 = 0.8822 | 694.22 ± 1.4 | 0.502 ± 0.007
358.15 K, x1 = 1 | 691.96 ± 1.4 | 0.497 ± 0.007
363.15 K, x1 = 0.0999 | 745.17 ± 1.5 | 0.68 ± 0.009
363.15 K, x1 = 0.2 | 733.23 ± 1.5 | 0.614 ± 0.008
363.15 K, x1 = 0.3026 | 723.13 ± 1.5 | 0.56 ± 0.007
363.15 K, x1 = 0.4001 | 715.08 ± 1.4 | 0.542 ± 0.007
363.15 K, x1 = 0.5022 | 708 ± 1.4 | 0.519 ± 0.007
363.15 K, x1 = 0.5976 | 702.37 ± 1.4 | 0.5 ± 0.007
363.15 K, x1 = 0.6984 | 697.3 ± 1.4 | 0.49 ± 0.007
363.15 K, x1 = 0.801 | 692.99 ± 1.4 | 0.48 ± 0.006
363.15 K, x1 = 0.8822 | 690.22 ± 1.4 | 0.48 ± 0.006
363.15 K, x1 = 1 | 688.18 ± 1.4 | 0.475 ± 0.006
